In PubChem BioAssay AID1963442 (Molecular Pharmacology Branch, DTP, NCI, 2024):

System: MPNST complex spheroid with HUVEC/MSC, growth, % test/control
Assay: Anticancer human tumor MPNST cell line growth inhibition [Asc];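 also: compounds left on spheroids for seven days before reading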
Details: for IC50: curve of first compound; for viability, T/C: stronger effect = lower value
How it was run: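 Spheroid model: tumor line + HUVEC + hMSC. Single agents and combinations; top conc. at/near clinical Cmax (10 microM if undetermined), half-log dilutions. DMSO stocks at 800-fold test concentration.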

[1] = second compound 0.03 µM, first compound 0.0316 µM
[2] = second compound 0.03 µM, first compound 0.1 µM
[3] = second compound 0.03 µM, first compound 0.316 µM
[4] = second compound 0.03 µM, first compound 1 µM
[5] = second compound 0.03 µM, first compound 3.16 µM
[6] = second compound 0.03 µM, first compound 10 µM
[7] = second compound 0.0949 µM, first compound 0.0316 µM
[8] = second compound 0.0949 µM, first compound 0.1 µM
[9] = second compound 0.0949 µM, first compound 0.316 µM
[10] = second compound 0.0949 µM, first compound 1 µM
[11] = second compound 0.0949 µM, first compound 3.16 µM
[12] = second compound 0.0949 µM, first compound 10 µM
[13] = second compound 0.3 µM, first compound 0.0316 µM
[14] = second compound 0.3 µM, first compound 0.1 µM
[15] = second compound 0.3 µM, first compound 0.316 µM
[16] = second compound 0.3 µM, first compound 1 µM
[17] = second compound 0.3 µM, first compound 3.16 µM
[18] = second compound 0.3 µM, first compound 10 µM
[19] = second compound 0.949 µM, first compound 0.0316 µM
[20] = second compound 0.949 µM, first compound 0.1 µM
[21] = second compound 0.949 µM, first compound 0.316 µM
[22] = second compound 0.949 µM, first compound 1 µM
[23] = second compound 0.949 µM, first compound 3.16 µM
[24] = second compound 0.949 µM, first compound 10 µM
[25] = second compound 3 µM, first compound 0.0316 µM
[26] = second compound 3 µM, first compound 0.1 µM
[27] = second compound 3 µM, first compound 0.316 µM
[28] = second compound 3 µM, first compound 1 µM
[29] = second compound 3 µM, first compound 3.16 µM
[30] = second compound 3 µM, first compound 10 µM

Structure (SMILES) | IC50 (second compound 0.03 µM) | IC50 (second compound 0.0949 µM) | IC50 (second compound 0.3 µM) | IC50 (second compound 0.949 µM) | IC50 (second compound 3 µM) | viability, T/C [1] | viability, T/C [2] | viability, T/C [3] | viability, T/C [4] | viability, T/C [5] | viability, T/C [6] | viability, T/C [7] | viability, T/C [8] | viability, T/C [9] | viability, T/C [10] | viability, T/C [11] | viability, T/C [12] | viability, T/C [13] | viability, T/C [14] | viability, T/C [15] | other results
C=C(F)C(=O)N1CCN(c2nc(OCC3CCCN3C)nc3c2CCN(c2cccc4cccc(Cl)c24)C3)CC1CC#N (stereo not given) + CCN1C(C(=O)NC23CCC(C(=O)O)(CC2)CC3)C(c2cccc(Cl)c2F)C2(C(=O)Nc3cc(Cl)ccc32)C12CCCCC2 | > 10 µM | > 10 µM | > 10 µM | > 10 µM | 3.89 µM | 56.3% | 61.1% | 65.2% | 63.1% | 72.9% | 65.6% | 87.5% | 59% | 77.5% | 75.6% | 67% | 66.2% | 92.4% | 85.3% | 106% | viability, T/C [16]: 63.6%; viability, T/C [17]: 82.8%; viability, T/C [18]: 68.8%; viability, T/C [19]: 88.5%; viability, T/C [20]: 80.3%; viability, T/C [21]: 97.5%; viability, T/C [22]: 62.1%; viability, T/C [23]: 55.4%; viability, T/C [24]: 57%; viability, T/C [25]: 84.8%; viability, T/C [26]: 74.8%; viability, T/C [27]: 73%; viability, T/C [28]: 60.8%; viability, T/C [29]: 50.8%; viability, T/C [30]: 42.7%
C=CC(=O)N1CCN(c2nc(=O)n(-c3c(C)ccnc3C(C)C)c3nc(-c4c(O)cccc4F)c(F)cc23)C(C)C1 (stereo not given) + CCN1C(C(=O)NC23CCC(C(=O)O)(CC2)CC3)C(c2cccc(Cl)c2F)C2(C(=O)Nc3cc(Cl)ccc32)C12CCCCC2 | > 10 µM | > 10 µM | > 10 µM | > 10 µM | > 10 µM | 62.4% | 76.1% | 73.3% | 87.7% | 106% | 108% | 84.9% | 85.3% | 99.8% | 103% | 98.8% | 124% | 75.7% | 85.3% | 93.6% | viability, T/C [16]: 94.5%; viability, T/C [17]: 90.2%; viability, T/C [18]: 101%; viability, T/C [19]: 77.7%; viability, T/C [20]: 71%; viability, T/C [21]: 90.6%; viability, T/C [22]: 77.7%; viability, T/C [23]: 81%; viability, T/C [24]: 117%; viability, T/C [25]: 85.9%; viability, T/C [26]: 76.5%; viability, T/C [27]: 59%; viability, T/C [28]: 75.8%; viability, T/C [29]: 79.8%; viability, T/C [30]: 89.1%
